The target of data set [1] is T1, nanoKAZ (mutated catalytic 19 kDa domain of Oplophorus luciferase) (Oplophorus gracilirostris, UniProt Q9GV45, A31E/A60N/A81I/F95D/I117V/K70R/L54V/L99Q/M102K/N193R/P142E/Q151K/Q38R/Q45L/V71I/Y165I).
T1 construct: secretory signal peptide of Gaussia luciferase (GLsp) (N, cleaved yes); made in house; host or cells: CHO-K1 transiently transfected with pcDNA3-GLsp-nanoKAZ; unpurified culture medium used as the enzyme solution
Kind of data set: Luminescence activity of secreted codon-optimized nanoKAZ domain protein with coelenterazine analogs as substrates. Type of data set: biochemical. The following applies: for Relative maximum luminescence intensity (Imax) / Relative amount of integrated luminescence intensity (1 min.): relative to coelenterazine = 1.0; for Relative maximum luminescence intensity (Imax): 1 μg substrate, 50 mM Tris-HCl (pH 7.6)-10 mM EDTA, 60 seconds; for Relative amount of integrated luminescence intensity (1 min.): integrated for 60 seconds; for Luminescence pattern (decay): FIG. 3, recombinant nanoKAZ. How it is done:
The Chinese hamster ovary-derived cell line CHO-K1 was cultured in Ham's F-12 medium (manufactured by Wako Pure Chemical Industries, Ltd.) containing 10% (v/v) calf fetal serum (manufactured by Biowest Inc.), and cultured in DMEM (manufactured by Wako Pure Chemical Industries, Ltd.) containing 10% (v/v) calf fetal serum (manufactured by Biowest Inc.). The respective cells were seeded in a 6-well culture plate (n=2) with 1×10^5 cells/well/2 mL medium, and cultured in an incubator at 37° C. in 5% CO2, respectively. After 24 hours, the purified pcDNA3-GLsp-nanoKAZ plasmid was transfected into CHO-K1 cells using a FuGene HD Transfection Kit (manufactured by Promega Corp.), which was used in the subsequent experiment. Specifically, 1 μg of the pcDNA3-GLsp-nanoKAZ expression vector and 3 μL of FuGene HD were added to 100 μL of medium, which was allowed to stand at room temperature for 15 minutes. Then 100 μL of the DNA-FuGene complex solution was added to the cells in the 6 wells. After incubation for 48 hours, the culture medium was recovered and used as the secreted nanoKAZ enzyme solution for assay.
The enzyme solution, 5 μL, for assay obtained in EXAMPLE 4 (2) was added to 100 pt of 50 mM Tris-HCl (pH 7.6)-10 mM EDTA (Wako Pure Chemical Industries) containing 1 μg each of various coelenterazine analogs to initiate the luminescence reaction. The luminescence activity was determined by a luminometer (AB2200, manufactured by Atto Company) for 60 seconds and expressed by the maximum luminescence intensity (Imax) and the relative light units (du) of the lumimescence intensity integrated for 60 seconds.
The coelenterazine analogs used for substrate specificity analysis except for the analog described in EXAMPLE 1 were synthesized by the methods as described in the journals below, respectively. Specifically, bis-coelenterazine was synthesized by the method described in Nakamura et al. (1997) Tetrahedron Lett. 38: 6405-6406; Furimazine (Compound No. 3939 referred to in the journal) and C6d-coelenterazine (Compound No. 3840 referred to in the journal) by the method described in Hall et al. (2012) ACS Chem. Biol. […]; and the C2-coelenterazine analogs by the method described in Inouye et al (2010) Anal. Biochem. 407: 247-252. The enzyme solution of the culture medium in which nanoKAZ was secreted by the method as described in EXAMPLE 4 (2) was used for determining the luminescence activity with coelenterazine or its analogs. […] As a result, the luminescence substrates which can markedly improve the luminescence intensity and the amount of the integrated luminescence intensity to compare with furimazine are bis-coelenterazine and C6d-f-coelenterazine, showing a continuous luminescence without a decay of the luminescence intensity.

Data set [2] deals with T2, Catalytic 19 kDa domain of Oplophorus luciferase (Oplophorus gracilirostris, UniProt Q9GV45).
T2 construct: The catalytic 19 kDa domain of Oplophorus luciferase was produced by the method described in; made in house
Kind of data set: Substrate specificity of various luciferases: catalytic 19 kDa domain of Oplophorus luciferase. Type of data set: biochemical, Oplophorus grachlorostris. The following applies: for Maximum Luminescence Intensity (Imax, %) / Relative Amount of Integrated Luminescence Intensity (1 min, %): relative to coelenterazine = 100. How it is done:
(§1) The preparation of various luciferases and the determination of their luminescence activities were carried out in accordance with the methods as previously reported. The catalytic 19 kDa domain of Oplophorus luciferase was produced by the method described in Inouye S. & Sasaki S. (2007) Protein Express. Purif. 56, 261-268, Gaussia luciferase by the method described in Inouye S & Sahara Y. (2008) Biochem. Biophys. Res. Commun. 368, 600-605, Renilla luciferase and Renilla luciferase 547 by the method described in Inouye S. et al. (2013) Protein Express. Purif. 88, 150-156, and aequorin by the method described in Inouye S et al. (2010) Anal. Biochem. 407, 247-252, respectively, and used.

Another data set has as its system Gaussia luciferase. Nature of the data set: Substrate specificity of various luciferases: Gaussia luciferase. Type of data set: biochemical. The following applies: relative to coelenterazine = 100. How it is done:
as §1

A further data set addresses T3, Renilla luciferase (Renilla reniformis, UniProt P27652).
T3 construct: made in house
T3 sequence (P27652 1-311): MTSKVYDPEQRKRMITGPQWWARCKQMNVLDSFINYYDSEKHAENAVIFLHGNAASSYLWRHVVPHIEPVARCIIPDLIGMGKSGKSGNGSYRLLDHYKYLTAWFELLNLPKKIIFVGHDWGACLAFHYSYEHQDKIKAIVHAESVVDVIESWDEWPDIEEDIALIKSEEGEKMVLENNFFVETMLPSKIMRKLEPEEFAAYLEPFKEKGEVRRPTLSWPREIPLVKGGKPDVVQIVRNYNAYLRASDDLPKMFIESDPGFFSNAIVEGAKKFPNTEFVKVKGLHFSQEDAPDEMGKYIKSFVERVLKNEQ
Nature of the data set: Substrate specificity of various luciferases: Renilla luciferase. Type of data set: biochemical. The following applies: relative to coelenterazine = 100. The protocol: as §1

Another data set concerns Renilla luciferase 547. Kind of data set: Substrate specificity of various luciferases: Renilla luciferase 547. It is filed as biochemical. The following applies: relative to coelenterazine = 100. The protocol:
as §1

A further data set addresses T4, Aequorin (Aequorea victoria, UniProt P07164).
T4 construct: made in house
Type of data set: biochemical, jellyfish. The following applies: relative to coelenterazine = 100. The protocol: as §1

Data set [3] is described as follows: Stability of coelenterazine analogs in aqueous solution (HPLC). It is filed as physicochemical. The following applies: 30 mM Tris-HCl (pH 7.6). The protocol: The stability of coelenterazine analogs in an aqueous solution was examined by dissolving 10 μg of coelenterazine analogs in 0.5 mL of 30 mM Tris-HCl (pH 7.6), allowing the solution to stand at 37° C. for 22 hours, and then the degradation of coelenterazine analogs was determined by HPLC analysis. The HPLC analysis was performed by the modified method as described in Inouye S. et al. (2013) Protein Express. Purif. 88, 150-156.

Setting [4] is: incubation time at 37° C. 0 hour.
The mark [5] stands for this setting: incubation time at 37° C. 22 hours.

T2 sequence (Q9GV45 28-196): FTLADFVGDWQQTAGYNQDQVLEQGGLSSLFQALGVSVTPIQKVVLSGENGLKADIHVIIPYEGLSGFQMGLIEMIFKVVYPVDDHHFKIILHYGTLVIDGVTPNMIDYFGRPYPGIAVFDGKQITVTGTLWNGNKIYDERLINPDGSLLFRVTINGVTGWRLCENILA
T4 sequence (P07164 8-196): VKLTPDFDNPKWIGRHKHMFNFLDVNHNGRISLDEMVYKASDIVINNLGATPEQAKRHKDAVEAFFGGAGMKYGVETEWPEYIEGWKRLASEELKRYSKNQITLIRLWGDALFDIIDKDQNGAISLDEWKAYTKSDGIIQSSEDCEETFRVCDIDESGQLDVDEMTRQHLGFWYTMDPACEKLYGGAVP
T1 sequence (Q9GV45 other isoform, or with tags, fused parts or gaps with the stated changes): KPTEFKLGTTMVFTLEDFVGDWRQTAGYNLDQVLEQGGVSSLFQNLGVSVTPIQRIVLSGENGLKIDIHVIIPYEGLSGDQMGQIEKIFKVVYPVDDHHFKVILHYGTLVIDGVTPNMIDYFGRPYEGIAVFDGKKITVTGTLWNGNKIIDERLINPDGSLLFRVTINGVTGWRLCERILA

In the case of coelenterazine [Coelenterazine (CTZ)], in data set [1], the “Relative maximum luminescence intensity (Imax)” value came to 1.0. In data set [1], the “Relative amount of integrated luminescence intensity (1 min.)” value (from here on “Relative amount … (1 min.)”) amounted to 1.0. The “Maximum Luminescence Intensity (Imax, %)” value (in data set [2]; in the data set with Gaussia luciferase; on Renilla luciferase; in the data set with Renilla luciferase 547; at Aequorin) was 100% in each case. The “Relative Amount of Integrated Luminescence Intensity (1 min, %)” value (“Relative Amount … (1 min, %)” for short) (in data set [2]; with Gaussia luciferase; at Renilla luciferase; with Renilla luciferase 547; at Aequorin) was “(100) %” in each case. Besides, the “Residual Ratio of Coelenterazine Analog (%)” value came out at 100% in data set [3] (setting [4]) and 2% in data set [3] (setting [5]).
Turning to `O=c1c(Cc2ccc(F)cc2)nc2c(Cc3ccccc3)[nH]c(-c3ccccc3)cn1-2` [C6d-f-Coelenterazine, C6d-f-coelenterazine], the “Luminescence pattern (decay)” value in data set [1] is given as “did not exhibit a rapid decay”. Moreover, the “Relative maximum luminescence intensity (Imax)” value in data set [1] came out at 10.1. Also, the “Relative amount … (1 min.)” value in data set [1] stood at 10.1. In data set [2] (in words, from TABLE 2), the Suitability as substrate result is “good substrate”. Further, the “Maximum Luminescence Intensity (Imax, %)” value in data set [2] was 100%; with Gaussia luciferase it was 0%; on Renilla luciferase, 0.07%; in the data set on Renilla luciferase 547 it was 0.17%; at Aequorin, 0.12%. The “Relative Amount … (1 min, %)” value is on record as “(105) %” in data set [2]; “(0) %” in the data set with Gaussia luciferase; “(0.01) %” at Renilla luciferase; “(0.13) %” in the data set on Renilla luciferase 547; “(0.19) %” at Aequorin. The “Residual Ratio of Coelenterazine Analog (%)” value in data set [3] (setting [4]) came to 100%; in data set [3] (setting [5]), 49%.
For `O=c1c(Cc2ccco2)nc2c(Cc3ccccc3)[nH]c(-c3ccccc3)cn1-2` [Furimazine], the “Luminescence pattern (decay)” value in data set [1] was “did not exhibit a rapid decay”. In data set [1], the “Relative maximum luminescence intensity (Imax)” value is recorded as 5.5. In addition, the “Relative amount … (1 min.)” value in data set [1] was determined as 5.7. The “Maximum Luminescence Intensity (Imax, %)” value turned out to be 72.2% in data set [2]; 0% in the data set on Gaussia luciferase; 0.01% at Renilla luciferase; 0.01% in the data set on Renilla luciferase 547; 0.02% on Aequorin. The “Relative Amount … (1 min, %)” value in data set [2] is “(65.2) %”; in the data set with Gaussia luciferase it was “(0) %”; on Renilla luciferase it was “(0.01) %”; in the data set on Renilla luciferase 547, “(0.01) %”; at Aequorin it was “(0.02) %”. In addition, the figures for the “Residual Ratio of Coelenterazine Analog (%)” value in data set [3] (setting [4]) and in data set [3] (setting [5]) were 100% and 3%, respectively.
With C6d-coelenterazine, the “Relative maximum luminescence intensity (Imax)” value in data set [1] is given as 0.8. In addition, the “Relative amount … (1 min.)” value in data set [1] is 0.7. Besides, the “Maximum Luminescence Intensity (Imax, %)” value came to 9.0% in data set [2]; 0.8% with Gaussia luciferase; 0.02% at Renilla luciferase; 0.12% in the data set on Renilla luciferase 547; 0.03% on Aequorin. The “Relative Amount … (1 min, %)” value in data set [2] was “(7.7) %”; with Gaussia luciferase it was “(0.8) %”; at Renilla luciferase, “(0.02) %”; in the data set on Renilla luciferase 547, “(0.12) %”; at Aequorin it was “(0.03) %”.
On to `Oc1ccc(-c2cn3c(O)c(Cc4ccccc4)nc3c(Cc3ccccc3)n2)cc1` [h-Coelenterazine], for which the “Relative maximum luminescence intensity (Imax)” value in data set [1] is listed as 17.0. The “Relative amount … (1 min.)” value in data set [1] was 10.1. Moreover, the “Maximum Luminescence Intensity (Imax, %)” value in data set [2] is given as 92.6%; with Gaussia luciferase, 8.2%; at Renilla luciferase it was 68.5%; with Renilla luciferase 547, 24.5%; at Aequorin it was 84.0%. Besides, the “Relative Amount … (1 min, %)” value is given as “(101) %” in data set [2]; “(12.1) %” in the data set with Gaussia luciferase; “(73.5) %” at Renilla luciferase; “(16.4) %” with Renilla luciferase 547; “(68.0) %” at Aequorin.
As for `O=c1c(Cc2ccc(F)cc2)nc2c(Cc3ccccc3)[nH]c(-c3ccc(O)cc3)cn1-2` [f-Coelenterazine], the “Relative maximum luminescence intensity (Imax)” value in data set [1] is 19.5. The “Relative amount … (1 min.)” value in data set [1] was determined as 11.1. Further, the “Maximum Luminescence Intensity (Imax, %)” value is given as 78.6% in data set [2]; 5.0% in the data set on Gaussia luciferase; 65.3% at Renilla luciferase; 78.0% in the data set on Renilla luciferase 547; 42.3% on Aequorin. Moreover, the “Relative Amount … (1 min, %)” value is listed as “(85.7) %” in data set [2]; “(10) %” with Gaussia luciferase; “(71.4) %” on Renilla luciferase; “(68.1) %” in the data set on Renilla luciferase 547; “(59.0) %” on Aequorin.
